From patent US7166635B2, “3-imino-2-indolones for the treatment of depression and/or anxiety” (H. Lundbeck A/S, priority 2002, dated 2007)

Target: T1, human GalR3 receptor (Homo sapiens, UniProt O60755)
T1 construct: expressed in transfected cells; membranes
T1 sequence (O60755 1-368): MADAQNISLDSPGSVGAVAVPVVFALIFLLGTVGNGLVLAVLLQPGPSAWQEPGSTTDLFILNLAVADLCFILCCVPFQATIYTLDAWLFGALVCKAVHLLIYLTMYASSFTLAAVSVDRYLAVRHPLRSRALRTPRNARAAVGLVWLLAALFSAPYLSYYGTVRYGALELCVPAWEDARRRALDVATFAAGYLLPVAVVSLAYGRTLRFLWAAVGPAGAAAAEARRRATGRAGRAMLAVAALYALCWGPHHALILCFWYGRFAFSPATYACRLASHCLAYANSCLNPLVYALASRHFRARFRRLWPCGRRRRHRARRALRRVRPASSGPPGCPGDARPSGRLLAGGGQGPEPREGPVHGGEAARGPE
Experiment: Radioligand binding at cloned human GalR3 receptor
Conditions: Binding Data; membranes of LM(tk-) cells stably transfected with human GalR3
Description: The present invention provides for a method of determining the binding affinity of a GalR3 antagonist, wherein the GalR3 antagonist is dissolved in a “suitable solvent”. A “suitable solvent” means one which permits the measurement of binding affinity of the GalR3 antagonist to the human GalR3 receptor at concentrations less than 1 μM, preferably less than 100 nM. Examples of solvents include, but are not limited to, DMSO, ethanol, N,N-dimethylacetamide, or water. For indolones, the preferred solvent is 3% DMSO (final concentration in the assay). For any other type of compounds, the preferred solvent is the solvent which permits the measurement of binding affinity of a GalR3 antagonist at the lowest concentration.
COS-7 cells were grown on 150 mm plates in D-MEM with supplements (Dulbecco's Modified Eagle Medium with 10% bovine calf serum, 4 mM glutamine, 100 units/ml penicillin, 100 μg/ml streptomycin) at 37° C. with 5% CO2. Stock plates of COS-7 cells were trypsinized and split 1:6 every 3–4 days. Human embryonic kidney 293 cells were grown on 150 mm plates in D-MEM with supplements (minimal essential medium) with Hanks' salts and supplements (Dulbecco's Modified Eagle Medium with 10% bovine calf serum, 4 mM glutamine, 100 units/ml penicillin, 100 μg/ml streptomycin) at 37° C. with 5% CO2. Stock plates of 293 cells were trypsinized and split 1:6 every 3–4 days. Mouse fibroblast LM(tk-) cells were grown on 150 mm plates in D-MEM with supplements (Dulbecco's Modified Eagle Medium with 10% bovine calf serum, 4 mM glutamine, 100 units/mL penicillin, 100 μg/mL streptomycin) at 37° C. with 5% CO2. Stock plates of LM(tk-) cells were trypsinized and split 1:10 every 3–4 days. Chinese Hamster Ovary (CHO) cells were grown on 150 mm plates in HAM's F12 medium with (HAM's F-12 with 10% bovine calf serum, 4 mM glutamine, 100 units/mL penicillin, 100 μg/mL streptomycin) at 37° C. with 5% CO2. Stock plates of CHO cells were trypsinized and split 1:8 every 3–4 days. LM(tk-) cells were stably transfected with the human GalR3 receptor.
cDNAs for the human and rat GalR3 receptors were transfected with a G-418 resistant gene into the mouse fibroblast LM(tk-) cell line by a calcium phosphate transfection method (Cullen, 1987).
Membranes were harvested from stably transfected LM(tk-) cells. Adherent cells were washed twice in ice-cold phosphate buffered saline (138 mM NaCl, 8.1 mM Na2HPO4, 2.5 mM KCl, 1.2 mM KH2PO4, 0.9 mM CaCl2, 0.5 mM MgCl2, pH 7.4) and lysed by sonication in ice-cold sonication buffer (20 mM Tris-HCl, 5 mM EDTA, pH 7.7). Large particles and debris were cleared by low speed centrifugation (200×g, 5 min, 4° C.). Membranes were collected from the supernatant fraction by centrifugation (32,000×g, 18 min, 4° C.), washed with ice-cold hypotonic buffer, and collected again by centrifugation (32,000×g, 18 min, 4° C.). The final membrane pellet was resuspended by sonication into a small volume of ice-cold binding buffer (˜1 ml for every 5 plates: 10 mM NaCl, 20 mM HEPES, 0.22 mM KH2PO4, 1.26 mM CaCl2, 0.81 mM MgSO4, pH 7.4). Protein concentration was measured by the Bradford method (Bradford, 1976) using Bio-Rad Reagent, with bovine serum albumin as a standard. Membranes were held on ice for up to one hour and used fresh, or flash frozen and stored in liquid nitrogen. Membranes were prepared similarly from CHO cells.
The methods to obtain the cDNA of the receptors, express said receptors in heterologous systems, and carry out assays to determine binding affinity are described as follows.
Binding assays were performed according to the following published method: human GALR3 (PCT International Publication No. WO 98/15570).

SMILES	Ki
COc1ccc(N2C(=O)C(=Nc3ccc(Cl)c(Cl)c3)c3cc(Cl)ccc32)cn1 (racemic) [Example 3, 5-CHLORO-3-[(3,4-DICHLOROPHENYL)IMINO]-1-(6-METHOXY-3-PYRIDINYL)-1,3-DIHYDRO-2H-INDOL-2-ONE]	20 nM
O=C1/C(=N\c2ccc3c(c2)OC(F)(F)O3)c2ccccc2N1c1ccc(O)cc1 [Example 1, 3-[(2,2-DIFLUORO-1,3-BENZODIOXOL-5-YL)IMINO]-1-(4-HYDROXYPHENYL)-1,3-DIHYDRO-2H-INDOL-2-ONE]	72 nM
COc1ccc(N2C(=O)/C(=N\c3ccc(Cl)c(Cl)c3)c3ccccc32)cn1 [Example 2, 3-[(3,4-DICHLOROPHENYL)IMINO]-1-(6-METHOXY-3-PYRIDINYL)-1,3-DIHYDRO-2H-INDOL-2-ONE]	15 nM
O=C1/C(=N\c2cccc(C(F)(F)F)c2)c2ccc(O)cc2N1c1ccccc1 [Example 4, 6-HYDROXY-1-PHENYL-3-{[3-(TRIFLUOROMETHYL)PHENYL]IMINO}-1,3-DIHYDRO-2H-INDOL-2-ONE]	55 nM
O=C1/C(=N\c2ccc(Cl)c(Cl)c2)c2ccccc2N1c1ccc(O)cc1 [Example 5, 3-[(3,4-DICHLOROPHENYL)IMINO]-1-(4-HYDROXYPHENYL)-1,3-DIHYDRO-2H-INDOL-2-ONE]	27 nM
O=C1/C(=N\c2cc(F)cc(F)c2)c2ccccc2N1c1ccc(O)cc1 [Example 6, 3-[(3,5-DIFLUOROPHENYL)IMINO]-1-(4-HYDROXYPHENYL)-1,3-DIHYDRO-2H-INDOL-2-ONE]	41 nM
O=C1/C(=N\c2cccc(C(F)(F)F)c2)c2ccccc2N1c1cccc(O)c1 [Example 7, 1-(3-HYDROXYPHENYL)-3-{[3-(TRIFLUOROMETHYL)PHENYL]IMINO}-1,3-DIHYDRO-2H-INDOL-2-ONE]	28 nM
O=C1/C(=N\c2cccc(C(F)(F)F)c2)c2ccccc2N1c1ccccc1O [Example 8, 1-(2-HYDROXYPHENYL)-3-{[3-(TRIFLUOROMETHYL)PHENYL]IMINO}-1,3-DIHYDRO-2H-INDOL-2-ONE]	68 nM
O=C1/C(=N\c2cccc(C(F)(F)F)c2)c2cc(O)ccc2N1c1ccccc1 [Example 9, 5-HYDROXY-1-PHENYL-3-{[3-(TRIFLUOROMETHYL)PHENYL]IMINO}-1,3-DIHYDRO-2H-INDOL-2-ONE]	58 nM
COc1ccc(N2C(=O)/C(=N\c3cccc(C(F)(F)F)c3)c3ccccc32)cn1 [Example 10, 3-[(3-TRIFLUOROMETHYLPHENYL)IMINO]-1-(6-METHOXY-3-PYRIDINYL)-1,3-DIHYDRO-2H-INDOL-2-ONE]	31 nM
